Measured values: patent US6391571B1, “Recombinant inactive avidin mutants” (Roche Diagnostics GmbH, priority 1997, dated 2002)

What was measured:
[1] = native polypeptide, non-covalent complex with biotin; cited from earlier work
[2] = test system: monobiotinylated Fab' antibody fragment; test: Affinity of streptavidin muteins to biotin derivatives, BIAcore system; format: binding; details: CM5 biosensor, 25° C.
Experimental: The affinity of the streptavidin muteins to biotin derivatives (constants Kon, Koff and KA) was determined in comparison to core streptavidin (wild type streptavidin) using the BIAcore system from the Pharmacia Co. For this the respective streptavidin samples were immobilized on the surface of biosensor chips (CM5 biosensor). The surface loading was selected in such a way that a measurement signal of 500 to 2000 resonance units (rU) was generated. The association kinetics were recorded for 3 min in each case at 25° C. and with 6 concentrations (12.5, 25, 50, 100, 200 and 400 nmol/l ) of a monobiotinylated Fab' antibody fragment. In order to investigate the influence of the reverse binding of the antibody, the dissociation kinetics in the absence and presence of 10 μg/ml core streptavidin were compared. The specificity of the binding was shown by an experiment with the same body in a non-biotinylated form (negative control).
The binding constants were determined for the purified streptavidin muteins as well as for streptavidin muteins cross-linked with a polymer (streptavidin-mutein […] serum albumin conjugates, preparation: EP-A-0 092).

Substance	binding affinity to biotin (KA) [1]	KA ([2]; monobiotinylated Fab')	Koff ([2]; monobiotinylated Fab')	t/2 diss ([2]; monobiotinylated Fab', cell prints h) [h]	Kon ([2]; streptavidin sample immobilized, 12.5-400 nmol/l monobiotinylated Fab')
avidin: native avidin, amino acid sequence SEQ ID NO.4	about 10^15 l/mol				
streptavidin: native streptavidin, protein sequence SEQ ID NO.2	about 10^15 l/mol				
wild-type: recombinant core streptavidin (shortened streptavidin), SEQ ID NO.16, produced per WO 93/09144		>10^10 1/mol	<10^−5 1/s	>20	2.2.10^5 1/mol.s
